Legend:
Type in all cases: in vivo
[1] = tested on: Polygonum convolvulus (POLCO); assay: E. Herbicidal post-emergence efficacy, POLCO
Procedure: (§1) Seeds of monocotyledonous and dicotyledonous weeds and crop plants were placed in sandy loam in plastic or organic planting pots, covered with soil and cultivated in a greenhouse under controlled growth conditions. 2 to 3 weeks after sowing, the test plants were treated at the one-leaf stage. The compounds of the invention, formulated in the form of wettable powders (WP) or as emulsion concentrates (EC), were then sprayed onto the green parts of the plants as aqueous suspension or emulsion with addition of 0.5% additive at a water application rate of 600 l/ha (converted). After the test plants had been kept in the greenhouse under optimum growth conditions for about 3 weeks, the activity of the preparations was rated visually in comparison to untreated controls.
(§2) For example, • 100% efficacy=plants have died, • 0% action=like untreated control plants.
(§3) Tables E1a to E12b below show the effects of selected compounds of the general formula (I) according to table 1 on various harmful plants at an application rate corresponding to 320 g/ha or less, which were obtained by the experimental procedure mentioned above.

Setaria viridis (SETVI) = assay: E. Herbicidal post-emergence efficacy, SETVI
Procedure: as §1, §2, §3

[2] = tested on: Echinochloa crus-galli (ECHCG); assay: B. Herbicidal post-emergence efficacy, ECHCG; details: rated visually after about 3 weeks
In short: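 Weeds grown in sandy loam in greenhouse pots, sprayed at one-leaf stage (2–3 weeks after sowing) with WP or EC formulations as aqueous suspension/emulsion plus 0.5% additive at 600 L/ha water, rates up to 1280 g/ha. Visual efficacy rated about 3 weeks later versus untreated controls (0% = like control, 100% = dead).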

[3] = tested on: Matricaria inodora (MATIN); assay: A. Herbicidal pre-emergence efficacy, MATIN
In short: (§4)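 Applied before emergence onto covering soil at rates of 1280 g/ha or less, using 600 L/ha spray water with 0.5% additive. Scoring: visual % efficacy after ~3 weeks, greenhouse.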

Viola tricolor (VIOTR) = assay: C. Herbicidal pre-emergence efficacy, VIOTR
In short: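 Pre-emergence test: formulated compounds sprayed as aqueous suspension or emulsion with 0.5% additive at 600 l/ha onto soil covering sown seeds, at rates corresponding to 320 g/ha or less. After about 3 weeks in greenhouse, efficacy scored visually as percent versus untreated controls (100% = plants dead).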

[4] = tested on: Abutilon theophrasti (ABUTH); assay: A. Herbicidal pre-emergence efficacy, ABUTH; details: scored visually after about 3 weeks vs untreated controls
In short: as §4

[5] = tested on: Digitaria sanguinalis (DIGSA); assay: A. Herbicidal pre-emergence efficacy, DIGSA; details: scored visually after about 3 weeks vs untreated controls
In short: as §4

[6] = pre-emergence, dosage 1280 g/ha
[7] = 320 g/ha, scored visually after about 3 weeks vs untreated controls

SMILES | Post-emergence efficacy against POLCO in % ([1]; application rate 80 g/ha) | Post-emergence efficacy against POLCO in % ([1]; application rate 320 g/ha) | Post-emergence efficacy against SETVI in % (Setaria viridis (SETVI); application rate 80 g/ha) | Post-emergence efficacy against SETVI in % (Setaria viridis (SETVI); application rate 320 g/ha) | Post-emergence efficacy against ECHCG in % ([2]; 80 g/ha) | Post-emergence efficacy against ECHCG in % ([2]; 320 g/ha) | Post-emergence efficacy against ECHCG in % ([2]; 1280 g/ha) | Pre-emergence efficacy against MATIN [3, 6] | Pre-emergence efficacy against VIOTR in % (Viola tricolor (VIOTR); application rate 80 g/ha) | Pre-emergence efficacy against VIOTR in % (Viola tricolor (VIOTR); application rate 320 g/ha) | Pre-emergence efficacy against ABUTH ([4]; 80 g/ha) | Pre-emergence efficacy against ABUTH ([4]; 320 g/ha) | Pre-emergence efficacy against ABUTH ([4]; 1280 g/ha) | Pre-emergence efficacy against MATIN [3, 7] | Pre-emergence efficacy against DIGSA ([5]; 1280 g/ha) | Pre-emergence efficacy against DIGSA ([5]; 320 g/ha) | Pre-emergence efficacy against DIGSA ([5]; 80 g/ha)
O=S(=O)(CCCCl)Oc1ccccc1Oc1ncc(Cl)cn1 [Example I-2] | 100% | 100% | 100% | 100% | 90% | 100% | 100% | 100% | 100% | 100% | 100% | 100% | 100% |  |  |  | 
CCCS(=O)(=O)Oc1ccccc1Oc1ncc(Cl)cn1 [Example I-3] |  | 90% |  | 90% |  |  | 90% | 100% | 90% | 100% | 100% | 100% | 100% | 100% |  |  | 
O=S(=O)(CCCCl)Oc1ccccc1Oc1ncc(F)cn1 [Example I-5] | 90% | 100% | 90% | 100% | 90% | 100% | 100% | 100% | 100% | 100% | 100% | 100% | 100% | 90% |  |  | 
CCCCS(=O)(=O)Oc1ccccc1Oc1ncc(Cl)cn1 [Example I-6] | 90% | 100% | 90% | 100% |  | 90% | 90% | 100% | 80% | 90% | 100% | 100% | 100% |  |  |  | 
CC(C)CS(=O)(=O)Oc1ccccc1Oc1ncc(Cl)cn1 [Example I-7, [2-(5-Chloropyrimidin-2-yl)oxyphenyl] 2-methylpropane-1-sulfonate] |  | 100% | 90% | 100% |  | 90% | 90% | 100% | 80% | 100% |  | 90% | 100% | 100% |  |  | 
O=S(=O)(CCC(F)(F)F)Oc1ccccc1Oc1ncc(Cl)cn1 [Example I-8] | 90% | 90% | 90% | 90% |  | 90% | 100% | 100% | 90% | 90% | 90% | 90% | 100% | 90% |  |  | 
O=S(=O)(CCl)Oc1ccccc1Oc1ncc(Cl)cn1 [Example I-9] |  | 90% |  | 100% |  |  | 90% | 100% | 90% | 100% |  |  | 90% | 90% |  |  | 
Cc1cccc(OS(=O)(=O)CCCCl)c1Oc1ncc(Cl)cn1 [Example I-12] |  | 100% |  | 90% |  |  |  | 100% |  | 90% | 90% | 90% | 100% | 90% |  |  | 
O=S(=O)(CCCCl)Oc1cccc(F)c1Oc1ncc(Cl)cn1 [Example I-13] |  | 80% |  |  |  |  | 90% |  |  |  |  | 90% | 100% |  | 100% |  | 
O=S(=O)(CCCCCl)Oc1ccccc1Oc1ncc(Cl)cn1 [Example I-15] | 80% | 100% | 80% | 100% | 90% | 100% | 100% |  | 100% | 100% | 100% | 100% | 100% |  |  |  | 
CCS(=O)(=O)Oc1ccccc1Oc1ncc(Cl)cn1 [Example I-16] |  |  |  |  |  |  | 90% | 100% |  |  |  | 100% | 100% | 100% | 100% | 100% | 
CCCCCS(=O)(=O)Oc1ccccc1Oc1ncc(Cl)cn1 [Example I-24] |  |  |  | 100% |  |  | 100% |  | 80% | 80% |  |  |  |  | 100% | 100% | 
CC(C)CCS(=O)(=O)Oc1ccccc1Oc1ncc(Cl)cn1 [Example I-25] |  |  |  | 100% |  | 90% | 100% | 100% | 90% | 100% |  |  | 100% |  | 100% | 100% | 90%
Cc1cccc(Oc2ncc(Cl)cn2)c1OS(=O)(=O)CCCC(F)(F)F [Example I-28, 2-[(5-Chloropyrimidin-2-yl)oxy]-6-methylphenyl 4,4,4-trifluorobutane-1-sulfonate] |  |  |  |  |  | 90% | 100% | 100% |  |  | 100% | 100% | 100% |  | 100% | 100% | 90%
Cc1cccc(Oc2ncc(Cl)cn2)c1OS(=O)(=O)CCC(F)(F)F [Example I-29] |  |  |  |  |  | 90% | 100% | 90% |  |  | 90% | 100% | 100% |  | 100% | 100% | 90%
O=S(=O)(CCCC(F)(F)F)Oc1c(Br)cccc1Oc1ncc(Cl)cn1 [Example I-30] |  |  |  |  |  | 90% | 90% | 100% |  |  |  | 90% | 100% |  | 100% | 100% | 
O=S(=O)(CCC(F)(F)F)Oc1c(Br)cccc1Oc1ncc(Cl)cn1 [Example I-31] |  |  |  |  |  |  | 100% | 90% |  |  |  | 90% | 90% |  | 100% | 90% | 
